Results reported in patent US9593110B2, “Neprilysin inhibitors” (Theravence Biopharma R&D IP, LLC, priority 2014, dated 2017).

Target: human NEP (Homo sapiens (Human), UniProt P08473)
Assay: In vitro enzyme inhibition assay at human NEP
Conditions: recombinant human NEP, fluorogenic peptide substrate, 37° C.; for Ki: pKi
Protocol: The inhibitory activities of compounds at human and rat neprilysin (EC 3.4.24.11; NEP) and human angiotensin converting enzyme (ACE) were determined using in vitro assays as described below.
The assays were performed in 384-well white opaque plates at 37° C. using the fluorogenic peptide substrates at a concentration of 10 μM in Assay Buffer (NEP: 50 mM HEPES, pH 7.5, 100 mM NaCl, 0.01% polyethylene glycol sorbitan monolaurate (Tween-20), 10 μM ZnSO4; ACE: 50 mM HEPES, pH 7.5, 100 mM NaCl, 0.01% Tween-20, 1 μM ZnSO4).
Test compounds were assayed over the range of concentrations from 10 μM to 20 pM. Test compounds were added to the enzymes and incubated for 30 minute at 37° C. prior to initiating the reaction by the addition of substrate.
Plates were read on a fluorometer with excitation and emission wavelengths set to 320 nm and 405 nm, respectively Inhibition constants were obtained by nonlinear regression of the data using the equation (GraphPad Software, Inc., San Diego, Calif.): v=v0/[1+(I/K′)] where v is the reaction rate, v0 is the uninhibited reaction rate, I is the inhibitor concentration and K′ is the apparent inhibition constant.

human NEP, sequence (P08473 52-750): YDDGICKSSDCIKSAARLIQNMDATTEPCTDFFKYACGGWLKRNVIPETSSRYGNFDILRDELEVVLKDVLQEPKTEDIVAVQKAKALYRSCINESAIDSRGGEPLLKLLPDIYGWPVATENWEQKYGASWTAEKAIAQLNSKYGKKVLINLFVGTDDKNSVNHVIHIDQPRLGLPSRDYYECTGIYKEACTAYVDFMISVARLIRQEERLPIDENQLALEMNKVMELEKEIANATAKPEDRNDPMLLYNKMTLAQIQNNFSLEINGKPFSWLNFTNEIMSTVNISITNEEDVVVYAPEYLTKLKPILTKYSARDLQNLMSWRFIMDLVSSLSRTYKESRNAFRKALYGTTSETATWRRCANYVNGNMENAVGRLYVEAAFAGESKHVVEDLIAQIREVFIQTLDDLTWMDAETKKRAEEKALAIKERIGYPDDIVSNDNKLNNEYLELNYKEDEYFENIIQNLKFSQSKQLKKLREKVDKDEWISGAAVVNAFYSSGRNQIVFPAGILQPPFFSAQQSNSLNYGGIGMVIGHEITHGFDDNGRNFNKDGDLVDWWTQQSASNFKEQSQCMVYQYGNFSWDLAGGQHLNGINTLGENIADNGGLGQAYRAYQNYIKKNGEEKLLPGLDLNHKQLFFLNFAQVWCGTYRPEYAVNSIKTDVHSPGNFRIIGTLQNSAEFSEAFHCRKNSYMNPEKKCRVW

Cc1cnc(C(=O)N[C@H](Cc2ccc(-c3cc(Cl)ccc3F)cc2)C[C@@H](CN)C(=O)O)o1 [Example 21-3, (2S,4S)-2-Aminomethyl-5-(5′-chloro-2′-fluorobiphenyl-4-yl)-4-[(5-methyl-oxazole-2-carbonyl)amino]pentanoic acid] was tested, and the pKi was “≧9.0”.

For C[C@H](N)C(=O)N[C@H](C[C@@H](Cc1ccc(-c2cc(Cl)ccc2F)cc1)NC(=O)c1cnn[nH]1)C(=O)O [Example 37-1, (2R,4R)-2-((S)-2-Aminopropionylamino)-5-(5′-chloro-2′-fluorobiphenyl-4-yl)-4-[(3H-[1,2,3]triazole-4-carbonyl)amino]pentanoic acid], the pKi was “≧9.0”.

COC1CN(C[C@@H](C[C@@H](Cc2ccc(-c3cc(Cl)ccc3F)cc2)NC(=O)c2c[nH]nn2)C(=O)O)C1 [Example 102c, (2R,4S)-5-(5′-Chloro-2′-fluorobiphenyl-4-yl)-2-(3-methoxyazetidin-1-ylmethyl)-4-[(1H-[1,2,3]triazole-4-carbonyl)amino]pentanoic Acid] showed a Ki of no more than 1 nM.

O=C(N[C@H](Cc1ccc(-c2cc(Cl)ccc2F)cc1)C[C@@H](Cn1ccnc1)C(=O)O)c1cnn[nH]1 [Example 62, (2S,4S)-5-(5′-Chloro-2′-fluorobiphenyl-4-yl)-2-imidazol-1-ylmethyl-4-[(3H-[1,2,3]triazole-4-carbonyl)amino]pentanoic Acid] was tested, and the pKi was “≧9.0”.

For COCCCNC[C@H](C[C@@H](Cc1ccc(-c2cc(Cl)ccc2F)cc1)NC(=O)c1cnn[nH]1)C(=O)O [Example 74, (2S,4S)-5-(5′-Chloro-2′-fluorobiphenyl-4-yl)-2-[(3-methoxypropylamino)-methyl]-4-[(3H-[1,2,3]triazole-4-carbonyl)amino]pentanoic Acid], the Ki was 1.26 to 3.16 nM.

CCOC[C@H](C[C@@H](Cc1ccc(-c2cc(Cl)ccc2F)cc1)NC(=O)c1c[nH]c(=O)o1)C(=O)O [Example 7-9, (2S,4S)-5-(5′-Chloro-2′-fluorobiphenyl-4-yl)-2-ethoxymethyl-4-[(2-oxo-2,3-dihydro-oxazole-5-carbonyl)amino]pentanoic acid] was tested, and the pKi was “≧9.0”.

In the case of COC(=O)N[C@H](C[C@@H](Cc1ccc(-c2cc(Cl)ccc2F)cc1)NC(=O)c1c[nH]c(=O)o1)C(=O)O [Example 30-10, (2R,4R)-5-(5′-Chloro-2′-fluorobiphenyl-4-yl)-2-methoxycarbonylamino-4-[(2-oxo-2,3-dihydro-oxazole-5-carbonyl)amino]pentanoic acid], the pKi is reported as “≧9.0”.

Work on O=C(N[C@H](Cc1ccc(-c2cc(Cl)ccc2F)cc1)C[C@@H](Cn1nccn1)C(=O)O)c1cnn[nH]1 [Example 61b, (2S,4S)-5-(5′-Chloro-2′-fluorobiphenyl-4-yl)-4-[(3H-[1,2,3]triazole-4-carbonyl)amino]-2-[1,2,3]triazol-2-ylmethylpentanoic Acid] yielded a Ki of no more than 1 nM.

For CCOC[C@H](C[C@@H](Cc1ccc(-c2cccc(Cl)c2)cc1)NC(=O)c1cc(C(C)=O)[nH]n1)C(=O)O [Example 9-2, (2S,4S)-4-[(5-Acetyl-1H-pyrazole-3-carbonyl)-amino]-5-(3′-chlorobiphenyl-4-yl)-2-ethoxymethylpentanoic acid], the pKi was “≧9.0”.

In the case of CNCCCC(=O)N[C@H](C[C@@H](Cc1ccc(-c2cc(Cl)ccc2F)cc1)NC(=O)c1c[nH]nn1)C(=O)O [Example 71, (2R,4R)-5-(5′-Chloro-2′-fluorobiphenyl-4-yl)-2-(4-methylamino-butyrylamino)-4-[(1H-[1,2,3]triazole-4-carbonyl)amino]pentanoic Acid], the pKi is reported as “≧9.0”.

With COC(=O)N[C@H](C[C@@H](Cc1ccc(-c2cc(Cl)ccc2F)cc1)NC(=O)c1c[nH]nn1)C(=O)O [Example 30-1, (2R,4R)-5-(5′-Chloro-2′-fluoro-biphenyl-4-yl)-2-methoxycarbonylamino-4-[(1H-[1,2,3]triazole-4-carbonyl)amino]pentanoic acid] the pKi was “≧9.0”.

For CCOC[C@H](C[C@@H](Cc1ccc(-c2cccc(Cl)c2)cc1)NC(=O)c1cc(OC)no1)C(=O)O [Example 9-4, (2S,4S)-5-(3′-Chlorobiphenyl-4-yl)-2-ethoxymethyl-4-[(3-methoxy-isoxazole-5-carbonyl)amino]pentanoic acid], the pKi was “≧9.0”.

For CCOC[C@H](C[C@@H](Cc1ccc(-c2cc(Cl)ccc2F)cc1)NC(=O)c1ncco1)C(=O)O [Example 7-6, (2S,4S)-5-(5′-Chloro-2′-fluorobiphenyl-4-yl)-2-ethoxymethyl-4-[(oxazole-2-carbonyl)amino]pentanoic acid], the pKi was “≧9.0”.

CCOc1nc(C(=O)N[C@H](Cc2ccc(-c3cc(Cl)ccc3F)cc2)C[C@@H](N)C(=O)O)co1 [Example 16-5, (2R,4R)-2-Amino-5-(5′-chloro-2′-fluorobiphenyl-4-yl)-4-[(2-ethoxyoxazole-4-carbonyl)-amino]pentanoic acid] gave a Ki of 3.16 to 10 nM.

CCOC(=O)[C@H](N)C[C@@H](Cc1ccc(-c2cc(Cl)ccc2F)cc1)NC(=O)c1cc(O)no1 [Example 16-11, (2R,4R)-2-Amino-5-(5′-chloro-2′-fluorobiphenyl-4-yl)-4-[(3-hydroxyisoxazole-5-carbonyl)amino]pentanoic acid ethyl ester] showed a Ki of 3.16 to 10 nM.

N#CC[C@H](C[C@@H](Cc1ccc(-c2cc(Cl)ccc2F)cc1)NC(=O)c1cnsc1)C(=O)O [Example 52-3, (2S,4S)-5-(5′-Chloro-2′-fluorobiphenyl-4-yl)-2-cyanomethyl-4-[(isothiazole-4-carbonyl)amino]pentanoic acid] gave a Ki of 1.26 to 3.16 nM.

N[C@@H](Cc1ccccc1)C(=O)N[C@H](C[C@@H](Cc1ccc(-c2cc(Cl)ccc2F)cc1)NC(=O)c1cnn[nH]1)C(=O)O [Example 57, (2R,4R)-2-((S)-2-Amino-3-phenylpropionylamino)-5-(5′-chloro-2′-fluorobiphenyl-4-yl)-4-[(3H-[1,2,3]triazole-4-carbonyl)amino]pentanoic Acid] was tested, and the pKi was “≧9.0”.

With N[C@H](C[C@@H](Cc1ccc(-c2cc(Cl)ccc2F)cc1)NC(=O)c1nc2cc(Cl)ccn2n1)C(=O)O [Example 16-25, (2R,4R)-2-Amino-5-(5′-chloro-2′-fluorobiphenyl-4-yl)-4-[(7-chloro-[1,2,4]triazolo[1,5-a]pyridine-2-carbonyl)amino]pentanoic acid] the pKi was “≧9.0”.

Molecule COCCN(C)C[C@H](C[C@@H](Cc1ccc(-c2cc(Cl)ccc2F)cc1)NC(=O)c1cnn[nH]1)C(=O)O [Example 85a, (2S,4S)-5-(5′-Chloro-2′-fluorobiphenyl-4-yl)-2-{[(2-methoxyethyl)methylamino]methyl}-4-[(3H-[1,2,3]triazole-4-carbonyl)amino]pentanoic Acid] has a Ki of no more than 1 nM.

Work on COc1cnc(C(=O)N[C@H](Cc2ccc(-c3cc(Cl)ccc3F)cc2Cl)C[C@H](N)C(=O)O)o1 [Example 18-12, (2S,4R)-2-Amino-5-(3,5′-dichloro-2′-fluoro-biphenyl-4-yl)-4-[(5-methoxyoxazole-2-carbonyl)amino]pentanoic acid] yielded a Ki of 3.16 to 10 nM.

With NC(=O)C[C@@H](C[C@@H](Cc1ccc(-c2cccc(F)c2)cc1)NC(=O)c1cnn[nH]1)C(=O)O [Example 54, (2R,4S)-2-Carbamoylmethyl-5-(3′-fluorobiphenyl-4-yl)-4-[(3H-[1,2,3]triazole-4-carbonyl)amino]pentanoic Acid] the Ki was 1.26 to 3.16 nM.

CC1(C)CN(C[C@H](C[C@@H](Cc2ccc(-c3cc(Cl)ccc3F)cc2)NC(=O)c2cnn[nH]2)C(=O)O)C1 [Example 89b, (2S,4S)-5-(5′-Chloro-2′-fluorobiphenyl-4-yl)-2-(3,3-dimethylazetidin-1-ylmethyl)-4-[(3H-[1,2,3]triazole-4-carbonyl)amino]pentanoic Acid] was tested, and the Ki was no more than 1 nM.

In the case of CS(=O)(=O)N[C@H](C[C@@H](Cc1ccc(-c2ccccc2)cc1)NC(=O)c1c[nH]nn1)C(=O)O [Example 47, (2R,4R)-5-Biphenyl-4-yl-2-methanesulfonylamino-4-[(1H-[1,2,3]triazole-4-carbonyl)amino]pentanoic Acid], the Ki is reported as 3.16 to 10 nM.

NCCCC(=O)N[C@H](C[C@@H](Cc1ccc(-c2cc(Cl)ccc2F)cc1)NC(=O)c1cnn[nH]1)C(=O)O [Example 40, (2R,4R)-2-(4-Aminobutyrylamino)-5-(5′-chloro-2′-fluorobiphenyl-4-yl)-4-[(3H-[1,2,3]triazole-4-carbonyl)amino]pentanoic Acid] showed a Ki of no more than 1 nM.

Work on N[C@H](C[C@@H](Cc1ccc(-c2cc(Cl)ccc2F)cc1)NC(=O)c1coc(C2CC2)n1)C(=O)O [Example 16-4, (2R,4R)-2-Amino-5-(5′-chloro-2′-fluorobiphenyl-4-yl)-4-[(2-cyclopropyloxazole-4-carbonyl)amino]pentanoic acid] yielded a Ki of 1.26 to 3.16 nM.

In the case of CC(=O)c1cc(C(=O)N[C@H](Cc2ccc(-c3cc(Cl)ccc3F)cc2)C[C@@H](N)C(=O)O)[nH]n1 [Example 16-9, (2R,4R)-4-[(5-Acetyl-2H-pyrazole-3-carbonyl)amino]-2-amino-5-(5′-chloro-2′-fluoro-biphenyl-4-yl)pentanoic acid], the pKi is reported as “≧9.0”.

COC[C@H](C[C@@H](Cc1ccc(-c2cccc(Cl)c2)cc1)NC(=O)c1cc(O)no1)C(=O)O [Example 4-2, (2S,4S)-5-(3′-Chlorobiphenyl-4-yl)-4-[(3-hydroxy-isoxazole-5-carbonyl)amino]-2-methoxymethylpentanoic acid] was tested, and the pKi was “≧9.0”.

For CC(C)c1coc(C(=O)N[C@H](Cc2ccc(-c3cc(Cl)ccc3F)cc2)C[C@@H](N)C(=O)O)n1 [Example 15, (2R,4R)-2-Amino-5-(5′-chloro-2′-fluorobiphenyl-4-yl)-4-[(4-isopropyloxazole-2-carbonyl)amino]pentanoic Acid], the Ki was no more than 1 nM.

In the case of CN(C)C[C@H](C[C@@H](Cc1ccc(-c2cc(Cl)ccc2F)cc1)NC(=O)c1cnn[nH]1)C(=O)O [Example 75, (2S,4S)-5-(5′-Chloro-2′-fluorobiphenyl-4-yl)-2-dimethylaminomethyl-4-[(3H-[1,2,3]triazole-4-carbonyl)amino]pentanoic Acid], the Ki is reported as 1.26 to 3.16 nM.
